Earlier results on one compound are cited in article PMC6247902 (Cancer immunology research, 2018).

By Kd is commonly meant a measure of binding affinity in units of concentration.

For this series, the system named is serum albumin. The note with it: read-out: affinity for serum albumin, KD.

Molecules are shown by their SMILES.

Turning to `Cc1c(C)c2c(c(C)c1O)CC[C@@](C)(CCC[C@H](C)CCC[C@H](C)CCCC(C)C)O2` [α-tocopherol], the Kd was roughly 7 µM.
